Experimental data from US20260022142A1, “MACROCYCLIC IMMUNOMODULATORS” (Bristol-Myers Squibb Company, priority 2022, published 2026).
Bridge positions count the residues as written; N and C are the ends. Square brackets hold non-standard residues; d marks the D form. Peptide text beside a SMILES is read from it. * marks the point of attachment. ξ: configuration not given here. Phe(4-CH2CH2COOH) = N[C@@H](Cc1ccc(CCC(=O)O)cc1)C(=O)O; Phe(3-CF3) = N[C@@H](Cc1cccc(C(F)(F)F)c1)C(=O)O; Phe(4-COOH) = N[C@@H](Cc1ccc(C(=O)O)cc1)C(=O)O; Bip = N[C@@H](Cc1ccc(-c2ccccc2)cc1)C(=O)O; Tyr(3-Me) = Cc1cc(C[C@H](N)C(=O)O)ccc1O; NH(CH2)14COOH = O=C(O)CCCCCCCCCCCCCCN*; Phe(3-Me) = Cc1cccc(C[C@H](N)C(=O)O)c1; Cha = N[C@@H](CC1CCCCC1)C(=O)O; Cit = NC(=O)NCCC[C@H](N)C(=O)O; Thr(3ξ) = CC(O)[C@H](N)C(=O)O; Tle = CC(C)(C)[C@H](N)C(=O)O; hSer = N[C@@H](CCO)C(=O)O; Carboxymethyl = O=C(O)C*; Nle = CCCC[C@H](N)C(=O)O; Orn = NCCC[C@H](N)C(=O)O; Aun = NCCCCCCCCCCC(=O)O; Dab = NCC[C@H](N)C(=O)O; Dap = NC[C@H](N)C(=O)O; AEEA = NCCOCCOCC(=O)O; CF3 = FC(F)(F)*

Target: T1, PD-1/PD-L1 interaction (PE-labeled human PD-L1-Ig binding to Jurkat cell line over-expressing human PD-1) (Homo sapiens, UniProt Q15116)
T1 construct: expressed in transfected cells; host or cells: Jurkat
T1 sequence (Q15116 25-288): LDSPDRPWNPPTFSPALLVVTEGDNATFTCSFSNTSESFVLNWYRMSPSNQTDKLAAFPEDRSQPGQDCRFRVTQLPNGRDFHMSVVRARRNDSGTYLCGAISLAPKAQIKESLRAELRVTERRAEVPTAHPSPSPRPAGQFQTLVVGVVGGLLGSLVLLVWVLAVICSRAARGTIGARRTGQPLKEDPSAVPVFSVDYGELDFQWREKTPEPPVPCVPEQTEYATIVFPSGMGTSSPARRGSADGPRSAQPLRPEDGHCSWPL
Assay: Jurkat-PD-1 Cell Binding High-Content Screening Assay (CBA)
Format: cell-based
Settings: Jurkat cell line over-expressing human PD-1; PE-labeled PD-L1-Ig 20 nM final; read-out: Jurkat hPD1-PDL1 IC50
Summary of the method: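 Human PD-L1-Ig carrying a covalent PE label on its Ig tag serves as the probe, applied at 20 nM final to compound-treated (2 h, 37° C) Jurkat-hPD-1 cells in medium with 10% fetal calf serum. After one hour, fixation and nuclear staining precede high-content image analysis.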

IC50 [nM]	Structure (SMILES)
17.6	Cc1cccc(C[C@@H]2NC(=O)[C@H](CC(=O)O)NC(=O)[C@H](Cc3ccc(OCC(=O)O)cc3)NC(=O)[C@H](CN)NC(=O)CSC[C@@H](C(=O)N[C@@H](CCN)C(=O)NCCCCCCCCCCC(=O)O)NC(=O)[C@H](CCC(N)=O)NC(=O)[C@H](C(C)C)NC(=O)[C@H](CC3CCCCC3)NC(=O)[C@H](CCN)NC(=O)[C@@H](CC(C)C)NC(=O)[C@H](CCCN)NC(=O)[C@H](Cc3ccc(OCC(=O)O)cc3)NC(=O)[C@H](Cc3ccc(-c4ccccc4)cc3)NC(=O)[C@H](Cc3ccc(OCC(=O)O)cc3)NC2=O)c1 [Compound 1247] ({CH2CO}-[Dap]Y(Carboxymethyl)D[Phe(3-Me)]Y(Carboxymethyl)[Bip]Y(Carboxymethyl)[Orn][dL][Dab][Cha]VQC[Dab][Aun]-OH; thioether N-14)
21.8	Cc1cccc(C[C@@H]2NC(=O)[C@H](CC(=O)O)NC(=O)[C@H](Cc3ccc(C(=O)O)cc3)NC(=O)[C@H](CN)NC(=O)CSC[C@@H](C(=O)N[C@@H](CCN)C(=O)NCCCCCCCCCCC(=O)O)NC(=O)[C@H]([C@@H](C)O)NC(=O)[C@H](C(C)C)NC(=O)[C@H](CC3CCCCC3)NC(=O)[C@H](CCN)NC(=O)[C@@H](CC(C)C)NC(=O)[C@H](CCCN)NC(=O)[C@H](Cc3ccc(OCC(=O)O)cc3)NC(=O)[C@H](Cc3ccc(-c4ccccc4)cc3)NC(=O)[C@H](Cc3ccc(OCC(=O)O)cc3)NC2=O)c1 [Compound 2165] ({CH2CO}-[Dap][Phe(4-COOH)]D[Phe(3-Me)]Y(Carboxymethyl)[Bip]Y(Carboxymethyl)[Orn][dL][Dab][Cha]VTC[Dab][Aun]-OH; thioether N-14)
32	CC(C)C[C@H]1NC(=O)[C@H](CCCN)NC(=O)[C@H](C(C)C)NC(=O)[C@H](Cc2ccc(-c3ccccc3)cc2)NC(=O)[C@H](C(C)C)NC(=O)[C@H](Cc2c[nH]c3ccccc23)NC(=O)[C@H](CC(=O)O)NC(=O)[C@H](Cc2ccc(OCC(=O)O)cc2)NC(=O)[C@H](C(C)O)NC(=O)CSC[C@@H](C(=O)N[C@@H](CCN)C(=O)NCCCCCCCCCCC(=O)O)NC(=O)[C@H](CO)NC(=O)[C@H](CCCCN)NC(=O)[C@H](CC2CCCCC2)NC(=O)[C@H](CCN)NC1=O (stereo partly drawn) [Compound 3666] ({CH2CO}-[Thr(3ξ)]Y(Carboxymethyl)DWV[Bip]V[Orn][dL][Dab][Cha]KSC[Dab][Aun]-OH; thioether N-14)
39.5	Cc1cccc(C[C@@H]2NC(=O)[C@H](CC(=O)O)NC(=O)[C@H](Cc3ccc(OCC(=O)O)cc3)NC(=O)[C@H](CN)NC(=O)CSC[C@@H](C(=O)N[C@@H](CCN)C(=O)NCCCCCCCCCCC(=O)O)NC(=O)[C@@H]([C@H](C)O)NC(=O)[C@H](C(C)C)NC(=O)[C@H](CC(C)C)NC(=O)[C@H](CCN)NC(=O)[C@@H](CC(C)C)NC(=O)[C@H](CCCN)NC(=O)[C@H](Cc3ccc(O)cc3)NC(=O)[C@H](Cc3ccc(-c4ccccc4)cc3)NC(=O)[C@H](C(C)C)NC2=O)c1 [Compound 2771] ({CH2CO}-[Dap]Y(Carboxymethyl)D[Phe(3-Me)]V[Bip]Y[Orn][dL][Dab]LV[dT]C[Dab][Aun]-OH; thioether N-14)
676	CC(C)C[C@H]1NC(=O)[C@H](CCCN)NC(=O)[C@H](Cc2ccc(OCC(=O)O)cc2)NC(=O)[C@H](Cc2ccc(-c3ccccc3)cc2)NC(=O)[C@H](Cc2ccc(CCC(=O)O)cc2)NC(=O)[C@H](Cc2cccc(C(F)(F)F)c2)NC(=O)[C@H](CC(=O)O)NC(=O)[C@H](Cc2ccc(OC(F)(F)F)cc2)NC(=O)[C@H](C)NC(=O)CSC[C@@H](C(=O)N[C@@H](CCN)C(=O)NCCCCCCCCCCCCCCC(=O)O)NC(=O)[C@H](CCC(=O)O)NC(=O)[C@H](C(C)C)NC(=O)[C@H](CC2CCCCC2)NC(=O)[C@H](CCN)NC1=O [Compound 3866] ({CH2CO}-AY(CF3)D[Phe(3-CF3)][Phe(4-CH2CH2COOH)][Bip]Y(Carboxymethyl)[Orn][dL][Dab][Cha]VEC[Dab]-{NH(CH2)14COOH}; thioether N-14)
36.5	Cc1cc(C[C@@H]2NC(=O)[C@H](CC(=O)O)NC(=O)[C@H](Cc3ccc(OCC(=O)O)cc3)NC(=O)[C@H](CN)NC(=O)CSC[C@@H](C(=O)N[C@@H](CCN)C(=O)NCCCCCCCCCCC(=O)O)NC(=O)[C@H](CCO)NC(=O)[C@H](C(C)C)NC(=O)[C@H](CC3CCCCC3)NC(=O)[C@H](CCN)NC(=O)[C@@H](CC(C)C)NC(=O)[C@H](CCCN)NC(=O)[C@H](Cc3ccc(OCC(=O)O)cc3)NC(=O)[C@H](Cc3ccc(-c4ccccc4)cc3)NC(=O)[C@H](C(C)C)NC2=O)ccc1O [Compound 2096] ({CH2CO}-[Dap]Y(Carboxymethyl)D[Tyr(3-Me)]V[Bip]Y(Carboxymethyl)[Orn][dL][Dab][Cha]V[hSer]C[Dab][Aun]-OH; thioether N-14)
27	Cc1cccc(C[C@@H]2NC(=O)[C@H](CC(=O)O)NC(=O)[C@H](Cc3ccc(OCC(=O)O)cc3)NC(=O)[C@H](CN)NC(=O)CSC[C@@H](C(=O)N[C@@H](CCC(=O)O)C(=O)NCCCCCCCCCCC(=O)O)NC(=O)[C@H]([C@@H](C)O)NC(=O)[C@H](C(C)C)NC(=O)[C@H](CC3CCCCC3)NC(=O)[C@H](Cc3cnc[nH]3)NC(=O)[C@@H](CC(C)C)NC(=O)[C@H](CCCN)NC(=O)[C@H](C(C)C)NC(=O)[C@H](Cc3ccc(-c4ccccc4)cc3)NC(=O)[C@H](C(C)C)NC2=O)c1 [Compound 1108] ({CH2CO}-[Dap]Y(Carboxymethyl)D[Phe(3-Me)]V[Bip]V[Orn][dL]H[Cha]VTCE[Aun]-OH; thioether N-14)
44.6	CCCC[C@@H]1NC(=O)[C@H](CCN)NC(=O)[C@@H](CC(C)C)NC(=O)[C@H](CCCN)NC(=O)[C@H](Cc2ccc(OCC(=O)O)cc2)NC(=O)[C@H](Cc2ccc(-c3ccccc3)cc2)NC(=O)[C@H](Cc2ccc(OCC(=O)O)cc2)NC(=O)[C@H](Cc2cccc(C)c2)NC(=O)[C@H](CC(=O)O)NC(=O)[C@H](Cc2ccc(OCC(=O)O)cc2)NC(=O)[C@H](CN)NC(=O)CSC[C@@H](C(=O)N[C@@H](CCN)C(=O)NCCOCCOCC(=O)NCCCCCCCCCCC(=O)O)NC(=O)[C@H](CCC(=O)O)NC(=O)[C@H](C(C)C)NC1=O [Compound 1258] ({CH2CO}-[Dap]Y(Carboxymethyl)D[Phe(3-Me)]Y(Carboxymethyl)[Bip]Y(Carboxymethyl)[Orn][dL][Dab][Nle]VEC[Dab][AEEA][Aun]-OH; thioether N-14)
12.9	CC(C)C[C@H]1NC(=O)[C@H](CCCN)NC(=O)[C@H](Cc2ccc(O)cc2)NC(=O)[C@H](Cc2ccc(-c3ccccc3)cc2)NC(=O)[C@H](C(C)C)NC(=O)[C@H](Cc2c[nH]c3ccccc23)NC(=O)[C@H](CC(=O)O)NC(=O)[C@H](Cc2ccc(OCC(=O)O)cc2)NC(=O)[C@H]([C@@H](C)O)NC(=O)CSC[C@@H](C(=O)N[C@@H](CCN)C(=O)NCCCCCCCCCCC(=O)O)NC(=O)[C@H](CCCNC(N)=O)NC(=O)[C@H](C(C)C)NC(=O)[C@H](CC2CCCCC2)NC(=O)[C@H](CCN)NC1=O [Compound 2729] ({CH2CO}-TY(Carboxymethyl)DWV[Bip]Y[Orn][dL][Dab][Cha]V[Cit]C[Dab][Aun]-OH; thioether N-14)
9.8	CC(C)C[C@H]1NC(=O)[C@H](CCCN)NC(=O)[C@H](C(C)C)NC(=O)[C@H](Cc2ccc(-c3ccccc3)cc2)NC(=O)[C@H](C(C)C)NC(=O)[C@H](Cc2c[nH]c3ccccc23)NC(=O)[C@H](CC(=O)O)NC(=O)[C@H](Cc2ccc(C(=O)O)cc2)NC(=O)[C@H](Cc2ccc(OCC(=O)O)cc2)NC(=O)CSC[C@@H](C(=O)NCC(=O)NCCOCCOCC(=O)N[C@@H](CCCN)C(=O)NCCCCCCCCCCC(=O)O)NC(=O)[C@H](CCCN)NC(=O)[C@H](C(C)C)NC(=O)[C@H](CC2CCCCC2)NC(=O)[C@H](CCN)NC1=O [Compound 3228] ({CH2CO}-Y(Carboxymethyl)[Phe(4-COOH)]DWV[Bip]V[Orn][dL][Dab][Cha]V[Orn]CG[AEEA][Orn][Aun]-OH; thioether N-14)
49.9	CC(C)C[C@@H]1NC(=O)[C@H](Cc2c[nH]c3ccccc23)NC(=O)[C@H](CC(=O)O)NC(=O)[C@H](Cc2ccc(C(=O)O)cc2)NC(=O)[C@H](Cc2ccc(CCC(=O)O)cc2)NC(=O)CSC[C@@H](C(=O)N[C@@H](CCN)C(=O)NCCCCCCCCCCC(=O)O)NC(=O)[C@@H](CO)NC(=O)[C@H](C(C)C)NC(=O)[C@H](CC2CCCCC2)NC(=O)[C@H](CCN)NC(=O)[C@@H](CC(C)C)NC(=O)[C@H](CCCN)NC(=O)[C@H](C(C)C)NC(=O)[C@H](Cc2ccc(-c3ccccc3)cc2)NC1=O [Compound 2019] ({CH2CO}-[Phe(4-CH2CH2COOH)][Phe(4-COOH)]DWL[Bip]V[Orn][dL][Dab][Cha]V[dS]C[Dab][Aun]-OH; thioether N-14)
8.9	Cc1cccc(C[C@@H]2NC(=O)[C@H](CC(=O)O)NC(=O)[C@H](Cc3ccc(OCC(=O)O)cc3)NC(=O)[C@H](CN)NC(=O)CSC[C@@H](C(=O)N[C@@H](CCN)C(=O)NCCCCCCCCCCC(=O)O)NC(=O)[C@@H](CCC(N)=O)NC(=O)[C@H](C(C)C)NC(=O)[C@H](CC3CCCCC3)NC(=O)[C@H](CCN)NC(=O)[C@@H](CC(C)C)NC(=O)[C@H](CCCN)NC(=O)[C@H](Cc3ccc(O)cc3)NC(=O)[C@H](Cc3ccc(-c4ccccc4)cc3)NC(=O)[C@H](Cc3ccc(O)cc3)NC2=O)c1 [Compound 2715] ({CH2CO}-[Dap]Y(Carboxymethyl)D[Phe(3-Me)]Y[Bip]Y[Orn][dL][Dab][Cha]V[dQ]C[Dab][Aun]-OH; thioether N-14)
18.1	Cc1cccc(C[C@@H]2NC(=O)[C@H](CC(=O)O)NC(=O)[C@H](Cc3ccc(OCC(=O)O)cc3)NC(=O)[C@H](CN)NC(=O)CSC[C@@H](C(=O)N[C@@H](CCN)C(=O)NCCCCCCCCCCC(=O)O)NC(=O)[C@H]([C@@H](C)O)NC(=O)[C@H](C(C)(C)C)NC(=O)[C@H](CC3CCCCC3)NC(=O)[C@H](CCN)NC(=O)[C@@H](CC(C)C)NC(=O)[C@H](CCCN)NC(=O)[C@H](CCCNC(N)=O)NC(=O)[C@H](Cc3ccc(-c4ccccc4)cc3)NC(=O)[C@H](C(C)C)NC2=O)c1 [Compound 2840] ({CH2CO}-[Dap]Y(Carboxymethyl)D[Phe(3-Me)]V[Bip][Cit][Orn][dL][Dab][Cha][Tle]TC[Dab][Aun]-OH; thioether N-14)
